Molecular target: T1, P. denitrificans complex I (Pd-CI, Pd-CI-ND), ubiquinone-binding site (Paracoccus denitrificans, UniProt A1B487+A1B495+A1B497)
T1 construct: gene nuoH; native 18-subunit complex from P. denitrificans membranes, His6 tag on Nqo5 (NDUFS3), DDM-purified, reconstituted in MSP2N2 phospholipid nanodiscs; NDUFS2-Arg65 dimethylated; ND3 N-formylMet; with NADH-quinone oxidoreductase subunit 1 (subunit F); NADH-quinone oxidoreductase subunit 2 (subunit E); NADH-quinone oxidoreductase subunit 3 (subunit G); NADH-quinone oxidoreductase subunit 5 (subunit C); NADH-quinone oxidoreductase subunit 7 (subunit A); NADH-quinone oxidoreductase subunit 9 (subunit I); NADH-quinone oxidoreductase subunit 10 (subunit J); NADH-quinone oxidoreductase subunit 11 (subunit K); NADH-quinone oxidoreductase subunit 12 (subunit L); NADH-quinone oxidoreductase subunit 13 (subunit M); NADH-quinone oxidoreductase subunit 14 (subunit N); NADH dehydrogenase [ubiquinone] iron-sulfur protein 4 homologue; NADH dehydrogenase [ubiquinone] iron-sulfur protein 6 homologue; NADH dehydrogenase [ubiquinone]; 1 alpha subcomplex subunit 12 homologue; Protein-L-isoaspartate O-methyltransferase
T1 sequence (A1B497 whole entry): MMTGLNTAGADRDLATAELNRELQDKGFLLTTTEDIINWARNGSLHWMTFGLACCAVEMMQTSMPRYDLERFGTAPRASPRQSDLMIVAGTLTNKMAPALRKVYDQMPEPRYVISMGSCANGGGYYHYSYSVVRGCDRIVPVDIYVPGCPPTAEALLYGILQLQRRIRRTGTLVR
T1 sequence (A1B495 whole entry): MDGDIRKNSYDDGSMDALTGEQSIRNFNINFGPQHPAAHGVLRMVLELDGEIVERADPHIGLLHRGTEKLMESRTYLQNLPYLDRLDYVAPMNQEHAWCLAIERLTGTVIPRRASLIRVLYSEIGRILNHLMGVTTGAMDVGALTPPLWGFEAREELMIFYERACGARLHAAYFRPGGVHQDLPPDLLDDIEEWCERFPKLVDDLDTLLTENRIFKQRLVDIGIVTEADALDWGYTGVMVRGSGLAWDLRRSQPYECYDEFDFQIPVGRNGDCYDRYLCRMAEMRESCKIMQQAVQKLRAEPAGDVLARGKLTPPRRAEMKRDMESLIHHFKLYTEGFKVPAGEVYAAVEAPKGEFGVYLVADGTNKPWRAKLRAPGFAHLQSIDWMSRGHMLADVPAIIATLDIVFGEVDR
T1 sequence (A1B487 whole entry): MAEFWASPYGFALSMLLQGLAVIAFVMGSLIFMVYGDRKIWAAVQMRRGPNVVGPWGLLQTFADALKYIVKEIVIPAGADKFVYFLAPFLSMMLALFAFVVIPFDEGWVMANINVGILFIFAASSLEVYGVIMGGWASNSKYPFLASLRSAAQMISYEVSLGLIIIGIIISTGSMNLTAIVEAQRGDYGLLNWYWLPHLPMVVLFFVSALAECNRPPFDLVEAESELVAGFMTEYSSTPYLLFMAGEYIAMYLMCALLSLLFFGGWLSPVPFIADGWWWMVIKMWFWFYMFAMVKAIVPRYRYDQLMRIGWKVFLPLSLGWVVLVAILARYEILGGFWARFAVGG
Assay: cryo-EM structure of the complex, […] Å
Details: closed resting state, oxidised; headgroup partially inserted near ND1-Arg38, Trp41, Met244, Lys295 and NDUFS7-Arg77; nanodiscs with added Q10

COC1=C(OC)C(=O)C(C/C=C(\C)CC/C=C(\C)CC/C=C(\C)CC/C=C(\C)CC/C=C(\C)CC/C=C(\C)CC/C=C(\C)CC/C=C(\C)CC/C=C(\C)CCC=C(C)C)=C(C)C1=O [ubiquinone-10]
cryo-EM structure of the complex, 2.3 Å: Density in the central polar region of the channel has been assigned to a partially inserted ubiquinone-10
